Assay results taken from patent US7476509B2, “Compounds and methods for modulating functions of nonclassical cadherins” (Adherex Technologies Inc., priority 2002, dated 2009).

Test system: SKOV3 human ovarian cancer cells
Assay: Effects of ADH358 on confluent cultures of SKOV3 cells (disruption of cell adhesion, microscopic examination)
Type: cell-based
Details: 1 mg/ml of culture medium, 24 hours of treatment
Experimental: We investigated the effects of the linear peptide ADH358 (H-RWAPIP-NH2 (SEQ ID NO: 2); Desmocollin derived peptide) on confluent cultures of SKOV3 cells. SKOV3 human ovarian cancer cells express desmosomes (which are composed of desmocollins and desmogleins). SKOV3 human ovarian cancer cells were obtained from Dr. Riaz Farookhi, McGill University, Montreal, Canada. The cells were cultured in minimum essential medium (MEM) supplemented with 10% fetal calf serum, non-essential amino acids, fungizone, penicillin-streptomycin, and gentamicin in a humidified atmosphere (5% CO2) at 37° C. All culture reagents were purchased from GIBCO (Burlington, ON). ADH358 (1 mg/ml of culture medium) was added to confluent cultures of SKOV3 cells. After 24 hours of treatment, the cells were fixed with 4% paraformaldehyde, followed by 3 washes with phosphate buffered saline, and then stained with hematoxylin. Control cultures were grown in the absence of peptide.

Substance: H-RWAPIP-NH2 [ADH358]
- cell morphology / cell-cell attachment of SKOV3 cells: detach from one another and adopt an elongated, fibroblast-like morphology
- effect on confluent SKOV3 monolayers (cell adhesion) (hematoxylin stain, vs control cultures without peptide): disruption of the confluent SKOV3 monolayers
